Data from US20140093884A1, “Process for Identifying Novel Anti-Inflammatory Molecules with Reduced Direct Transrepression of Genes Induced by Glucocorticoids” (UNIVERSITE DE STRASBOURG, priority 2011, published 2014).

How the values were obtained:
Format in all cases: in vivo, mouse
Set-up in all cases: key: ♦: not repressed
[1] = system: IR0, IR1 and IR2 nGRE containing genes; experiment: Q-RT-PCR of IR nGRE-containing genes in intestinal epithelium of 18 hr-Dex-treated WT mice
Text: (§1) Real time PCR. Total RNA was reverse transcribed using hexamers, followed by Q-PCR, as reported (Li et al., 2005).
(§2) A comparison of mouse and human orthologues indicated conservations of such IR elements (51 IR0, 379 IR1 and 566 IR2). Within these orthologue gene families, 35 IR0, 50 IR1 and 50 IR2 nGRE-containing mouse genes (Table 4) were randomly chosen to investigate whether (i) they were expressed in epidermis, intestinal epithelium and liver, (ii) their expression was inhibited by the GC agonist Dexamethasone (Dex), (iii) this inhibition could be relieved by RU486 co-administration, and also if it could be correlated with GR and corepressor binding to their putative IR nGREs.

[2] = system: IR0, IR1 and IR2 nGRE containing genes; experiment: Q-RT-PCR of IR nGRE-containing genes in epidermis of 18 hr-Dex-treated WT mice
Text: as §1, §2

[3] = system: IR0, IR1 and IR2 nGRE containing genes; experiment: Q-RT-PCR of IR nGRE-containing genes in liver of 18 hr-Dex-treated WT mice
Text: as §1, §2

C[C@@H]1C[C@H]2[C@@H]3CCC4=CC(=O)C=C[C@]4(C)[C@@]3(F)[C@@H](O)C[C@]2(C)[C@@]1(O)C(=O)CO [Dex, dexamethasone]
♦: AIP transcript level, not repressed ([1]; IR0 nGRE gene) | ANO4 transcript level, not repressed ([1]; IR0 nGRE gene) | CITED1 transcript level, not repressed ([1]; IR0 nGRE gene) | DLAT transcript level, not repressed ([1]; IR0 nGRE gene) | FBXL18 transcript level, not repressed ([1]; IR0 nGRE gene) | GPIHBP1 transcript level, not repressed ([1]; IR0 nGRE gene) | KLF5 transcript level, not repressed ([1]; IR0 nGRE gene) | LAG3 transcript level, not repressed ([1]; IR0 nGRE gene) | MAPK4 transcript level, not repressed ([1]; IR0 nGRE gene) | MTG1 transcript level, not repressed ([1]; IR0 nGRE gene) | NDUFA4L2 transcript level, not repressed ([1]; IR0 nGRE gene) | NEU1 transcript level, not repressed ([1]; IR0 nGRE gene) | PPIL5 transcript level, not repressed ([1]; IR0 nGRE gene) | PTMS transcript level, not repressed ([1]; IR0 nGRE gene) | SLC25A5 transcript level, not repressed ([1]; IR0 nGRE gene) | SP9 transcript level, not repressed ([1]; IR0 nGRE gene) | SPARC transcript level, not repressed ([1]; IR0 nGRE gene) | TCF25 transcript level, not repressed ([1]; IR0 nGRE gene) | TRPM7 transcript level, not repressed ([1]; IR0 nGRE gene) | ZBED4 transcript level, not repressed ([1]; IR0 nGRE gene) | ZFP113 transcript level, not repressed ([1]; IR0 nGRE gene) | ZFP467 transcript level, not repressed ([1]; IR0 nGRE gene) | ZFP784 transcript level, not repressed ([1]; IR0 nGRE gene) | ADRA2A transcript level, not repressed ([1]; IR1 nGRE gene) | AGPAT2 transcript level, not repressed ([1]; IR1 nGRE gene) | ATN1 transcript level, not repressed ([1]; IR1 nGRE gene) | BCL2L1 transcript level, not repressed ([1]; IR1 nGRE gene) | BMP3 transcript level, not repressed ([1]; IR1 nGRE gene) | CADM4 transcript level, not repressed ([1]; IR1 nGRE gene) | CDH11 transcript level, not repressed ([1]; IR1 nGRE gene) | CDK9 transcript level, not repressed ([1]; IR1 nGRE gene) | CTSA transcript level, not repressed ([1]; IR1 nGRE gene) | DYNLT3 transcript level, not repressed ([1]; IR1 nGRE gene) | GPR108 transcript level, not repressed ([1]; IR1 nGRE gene) | GPR153 transcript level, not repressed ([1]; IR1 nGRE gene) | KLC3 transcript level, not repressed ([1]; IR1 nGRE gene) | LRRC transcript level, not repressed ([1]; IR1 nGRE gene) | MTHFR transcript level, not repressed ([1]; IR1 nGRE gene) | MXI1 transcript level, not repressed ([1]; IR1 nGRE gene) | NKRF transcript level, not repressed ([1]; IR1 nGRE gene) | SCP2 transcript level, not repressed ([1]; IR1 nGRE gene) | SOCS3 transcript level, not repressed ([1]; IR1 nGRE gene) | SREPF1 transcript level, not repressed ([1]; IR1 nGRE gene) | SSTR4 transcript level, not repressed ([1]; IR1 nGRE gene) | STAB1 transcript level, not repressed ([1]; IR1 nGRE gene) | COL4A3BP transcript level, not repressed ([1]; IR2 nGRE gene) | DPAGT1 transcript level, not repressed ([1]; IR2 nGRE gene) | ELMOD3 transcript level, not repressed ([1]; IR2 nGRE gene) | ERP27 transcript level, not repressed ([1]; IR2 nGRE gene) | FSTL1 transcript level, not repressed ([1]; IR2 nGRE gene) | GIT2 transcript level, not repressed ([1]; IR2 nGRE gene) | GLU1 transcript level, not repressed ([1]; IR2 nGRE gene) | GOT1 transcript level, not repressed ([1]; IR2 nGRE gene) | GPR68 transcript level, not repressed ([1]; IR2 nGRE gene) | GUK1 transcript level, not repressed ([1]; IR2 nGRE gene) | HSPB2 transcript level, not repressed ([1]; IR2 nGRE gene) | HSPB3 transcript level, not repressed ([1]; IR2 nGRE gene) | ITPKA transcript level, not repressed ([1]; IR2 nGRE gene) | MUC20 transcript level, not repressed ([1]; IR2 nGRE gene) | PRKRA transcript level, not repressed ([1]; IR2 nGRE gene) | SLC2A8 transcript level, not repressed ([1]; IR2 nGRE gene) | SLC25A34 transcript level, not repressed ([1]; IR2 nGRE gene) | SOCS1 transcript level, not repressed ([1]; IR2 nGRE gene) | TGM6 transcript level, not repressed ([1]; IR2 nGRE gene) | TNFRSF25 transcript level, not repressed ([1]; IR2 nGRE gene) | AIP transcript level, not repressed ([2]; IR0 nGRE gene) | DDI1 transcript level, not repressed ([2]; IR0 nGRE gene) | DLAT transcript level, not repressed ([2]; IR0 nGRE gene) | FBXL18 transcript level, not repressed ([2]; IR0 nGRE gene) | FSD2 transcript level, not repressed ([2]; IR0 nGRE gene) | GPIHBP1 transcript level, not repressed ([2]; IR0 nGRE gene) | HCST transcript level, not repressed ([2]; IR0 nGRE gene) | KLF5 transcript level, not repressed ([2]; IR0 nGRE gene) | LAG3 transcript level, not repressed ([2]; IR0 nGRE gene) | MTG1 transcript level, not repressed ([2]; IR0 nGRE gene) | NEU1 transcript level, not repressed ([2]; IR0 nGRE gene) | PTMS transcript level, not repressed ([2]; IR0 nGRE gene) | SLC25A5 transcript level, not repressed ([2]; IR0 nGRE gene) | TCF25 transcript level, not repressed ([2]; IR0 nGRE gene) | TRPM7 transcript level, not repressed ([2]; IR0 nGRE gene) | ZBED4 transcript level, not repressed ([2]; IR0 nGRE gene) | ZFP113 transcript level, not repressed ([2]; IR0 nGRE gene) | ZFP467 transcript level, not repressed ([2]; IR0 nGRE gene) | ZFP784 transcript level, not repressed ([2]; IR0 nGRE gene) | AGPAT2 transcript level, not repressed ([2]; IR1 nGRE gene) | AKAP6 transcript level, not repressed ([2]; IR1 nGRE gene) | ARHGAP23 transcript level, not repressed ([2]; IR1 nGRE gene) | ATN1 transcript level, not repressed ([2]; IR1 nGRE gene) | B4GALT2 transcript level, not repressed ([2]; IR1 nGRE gene) | BCL2L1 transcript level, not repressed ([2]; IR1 nGRE gene) | BEST2 transcript level, not repressed ([2]; IR1 nGRE gene) | BMP3 transcript level, not repressed ([2]; IR1 nGRE gene) | CACNA2D3 transcript level, not repressed ([2]; IR1 nGRE gene) | CADM4 transcript level, not repressed ([2]; IR1 nGRE gene) | CDK9 transcript level, not repressed ([2]; IR1 nGRE gene) | CTSA transcript level, not repressed ([2]; IR1 nGRE gene) | DYNLT3 transcript level, not repressed ([2]; IR1 nGRE gene) | GNG10 transcript level, not repressed ([2]; IR1 nGRE gene) | GPR108 transcript level, not repressed ([2]; IR1 nGRE gene) | GPR153 transcript level, not repressed ([2]; IR1 nGRE gene) | JUND transcript level, not repressed ([2]; IR1 nGRE gene) | KLC3 transcript level, not repressed ([2]; IR1 nGRE gene) | LRRC transcript level, not repressed ([2]; IR1 nGRE gene) | MT2 transcript level, not repressed ([2]; IR1 nGRE gene) | MTHFR transcript level, not repressed ([2]; IR1 nGRE gene) | MXI1 transcript level, not repressed ([2]; IR1 nGRE gene) | NKRF transcript level, not repressed ([2]; IR1 nGRE gene) | SCP2 transcript level, not repressed ([2]; IR1 nGRE gene) | SREPF1 transcript level, not repressed ([2]; IR1 nGRE gene) | SSTR4 transcript level, not repressed ([2]; IR1 nGRE gene) | STAB1 transcript level, not repressed ([2]; IR1 nGRE gene) | USF1 transcript level, not repressed ([2]; IR1 nGRE gene) | COL4A3BP transcript level, not repressed ([2]; IR2 nGRE gene) | ELMOD3 transcript level, not repressed ([2]; IR2 nGRE gene) | FKBP2 transcript level, not repressed ([2]; IR2 nGRE gene) | FOXQ1 transcript level, not repressed ([2]; IR2 nGRE gene) | GGT1 transcript level, not repressed ([2]; IR2 nGRE gene) | GIT2 transcript level, not repressed ([2]; IR2 nGRE gene) | GLU1 transcript level, not repressed ([2]; IR2 nGRE gene) | GOT1 transcript level, not repressed ([2]; IR2 nGRE gene) | GPR97 transcript level, not repressed ([2]; IR2 nGRE gene) | GRASP transcript level, not repressed ([2]; IR2 nGRE gene) | HSPB2 transcript level, not repressed ([2]; IR2 nGRE gene) | POMGNT1 transcript level, not repressed ([2]; IR2 nGRE gene) | PRKRA transcript level, not repressed ([2]; IR2 nGRE gene) | RORA transcript level, not repressed ([2]; IR2 nGRE gene) | SLC2A8 transcript level, not repressed ([2]; IR2 nGRE gene) | TGM6 transcript level, not repressed ([2]; IR2 nGRE gene) | AIP transcript level, not repressed ([3]; IR0 nGRE gene) | CITED1 transcript level, not repressed ([3]; IR0 nGRE gene) | DLAT transcript level, not repressed ([3]; IR0 nGRE gene) | FBXL18 transcript level, not repressed ([3]; IR0 nGRE gene) | GPIHBP1 transcript level, not repressed ([3]; IR0 nGRE gene) | INHBE transcript level, not repressed ([3]; IR0 nGRE gene) | MTG1 transcript level, not repressed ([3]; IR0 nGRE gene) | NMYC transcript level, not repressed ([3]; IR0 nGRE gene) | PTMS transcript level, not repressed ([3]; IR0 nGRE gene) | TCF25 transcript level, not repressed ([3]; IR0 nGRE gene) | ZBED4 transcript level, not repressed ([3]; IR0 nGRE gene) | ZFP113 transcript level, not repressed ([3]; IR0 nGRE gene) | ZFP784 transcript level, not repressed ([3]; IR0 nGRE gene) | ADRA2A transcript level, not repressed ([3]; IR1 nGRE gene) | AGPAT2 transcript level, not repressed ([3]; IR1 nGRE gene) | BMP3 transcript level, not repressed ([3]; IR1 nGRE gene) | CADM4 transcript level, not repressed ([3]; IR1 nGRE gene) | CDH11 transcript level, not repressed ([3]; IR1 nGRE gene) | CDK9 transcript level, not repressed ([3]; IR1 nGRE gene) | CTSA transcript level, not repressed ([3]; IR1 nGRE gene) | DYNLT3 transcript level, not repressed ([3]; IR1 nGRE gene) | GPR108 transcript level, not repressed ([3]; IR1 nGRE gene) | GPR153 transcript level, not repressed ([3]; IR1 nGRE gene) | HSD11B2 transcript level, not repressed ([3]; IR1 nGRE gene) | KLC3 transcript level, not repressed ([3]; IR1 nGRE gene) | LRRC transcript level, not repressed ([3]; IR1 nGRE gene) | MT2 transcript level, not repressed ([3]; IR1 nGRE gene) | MTHFR transcript level, not repressed ([3]; IR1 nGRE gene) | MXI1 transcript level, not repressed ([3]; IR1 nGRE gene) | SCP2 transcript level, not repressed ([3]; IR1 nGRE gene) | SGK3 transcript level, not repressed ([3]; IR1 nGRE gene) | SREPF1 transcript level, not repressed ([3]; IR1 nGRE gene) | SSTR4 transcript level, not repressed ([3]; IR1 nGRE gene) | STAB1 transcript level, not repressed ([3]; IR1 nGRE gene) | CCR10 transcript level, not repressed ([3]; IR2 nGRE gene) | COL4A3BP transcript level, not repressed ([3]; IR2 nGRE gene) | DPAGT1 transcript level, not repressed ([3]; IR2 nGRE gene) | ELMOD3 transcript level, not repressed ([3]; IR2 nGRE gene) | ERP27 transcript level, not repressed ([3]; IR2 nGRE gene) | FOXJ1 transcript level, not repressed ([3]; IR2 nGRE gene) | FOXQ1 transcript level, not repressed ([3]; IR2 nGRE gene) | GGT1 transcript level, not repressed ([3]; IR2 nGRE gene) | GOT1 transcript level, not repressed ([3]; IR2 nGRE gene) | GPR97 transcript level, not repressed ([3]; IR2 nGRE gene) | GRASP transcript level, not repressed ([3]; IR2 nGRE gene) | HSPB2 transcript level, not repressed ([3]; IR2 nGRE gene) | HSPB3 transcript level, not repressed ([3]; IR2 nGRE gene) | MUC20 transcript level, not repressed ([3]; IR2 nGRE gene) | POMGNT1 transcript level, not repressed ([3]; IR2 nGRE gene) | PRKRA transcript level, not repressed ([3]; IR2 nGRE gene) | SOCS1 transcript level, not repressed ([3]; IR2 nGRE gene) | TNFRSF25 transcript level, not repressed ([3]; IR2 nGRE gene)
